Laboratory results from ChEMBL document CHEMBL5634096, “Design, synthesis and bioevaluation of PI3Kα-selective inhibitors as potential colorectal cancer drugs” (Eur J Med Chem, 2023).

Key:
[1] = target: Phosphatidylinositol 4,5-bisphosphate 3-kinase catalytic subunit alpha isoform (Homo sapiens, UniProt P42336); test: Inhibition of PI3Kalpha (unknown origin) by ADP-Glo luminescent kinase assay
MDA-MB-231 = test: Antiproliferative activity against human MDA-MB-231 cells assessed as reduction in cell viability incubated for 24 to 48 hrs by CCK-8 assay; format: functional, cell-based
MCF7 = test: Antiproliferative activity against human MCF7 cells assessed as reduction in cell viability incubated for 24 to 48 hrs by CCK-8 assay; format: functional, cell-based
SW-620 = test: Antiproliferative activity against human SW-620 cells assessed as reduction in cell viability incubated for 24 to 48 hrs by CCK-8 assay; format: functional, cell-based
HCT-116 = test: Antiproliferative activity against human HCT-116 cells assessed as reduction in cell viability incubated for 24 to 48 hrs by CCK-8 assay; format: functional, cell-based
[2] = target: T1, Phosphatidylinositol 4,5-bisphosphate 3-kinase catalytic subunit delta isoform (Homo sapiens, UniProt O00329); test: Inhibition of PI3Kdelta (unknown origin) by ADP-Glo luminescent kinase assay
T1 sequence (O00329 whole entry): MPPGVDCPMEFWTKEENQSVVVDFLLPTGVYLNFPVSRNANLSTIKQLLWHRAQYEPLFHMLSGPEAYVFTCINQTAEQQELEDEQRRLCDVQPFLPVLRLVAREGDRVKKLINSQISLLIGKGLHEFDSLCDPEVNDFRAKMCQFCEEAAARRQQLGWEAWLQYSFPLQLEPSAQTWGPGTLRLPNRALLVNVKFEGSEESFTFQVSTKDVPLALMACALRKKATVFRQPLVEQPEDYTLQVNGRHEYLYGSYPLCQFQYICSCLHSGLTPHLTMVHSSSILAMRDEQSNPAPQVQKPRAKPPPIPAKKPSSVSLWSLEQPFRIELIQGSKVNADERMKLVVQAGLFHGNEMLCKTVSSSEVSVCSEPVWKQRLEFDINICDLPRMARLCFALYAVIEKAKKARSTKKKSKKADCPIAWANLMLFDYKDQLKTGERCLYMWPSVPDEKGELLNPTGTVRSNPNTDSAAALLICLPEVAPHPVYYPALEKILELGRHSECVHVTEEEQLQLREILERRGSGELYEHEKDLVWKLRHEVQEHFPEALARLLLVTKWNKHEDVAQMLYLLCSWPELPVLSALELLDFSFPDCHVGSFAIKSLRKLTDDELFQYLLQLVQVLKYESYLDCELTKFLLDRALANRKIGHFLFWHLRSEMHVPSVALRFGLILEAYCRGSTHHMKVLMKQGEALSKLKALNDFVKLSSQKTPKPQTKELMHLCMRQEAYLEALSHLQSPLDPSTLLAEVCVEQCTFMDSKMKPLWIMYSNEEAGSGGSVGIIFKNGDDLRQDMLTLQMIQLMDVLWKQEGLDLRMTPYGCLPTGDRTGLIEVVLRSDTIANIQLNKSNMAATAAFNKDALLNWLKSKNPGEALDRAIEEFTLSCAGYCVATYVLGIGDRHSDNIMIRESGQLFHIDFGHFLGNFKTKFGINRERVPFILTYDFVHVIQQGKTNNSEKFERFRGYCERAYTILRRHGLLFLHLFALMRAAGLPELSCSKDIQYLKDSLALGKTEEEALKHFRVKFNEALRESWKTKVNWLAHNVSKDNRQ

[3] = target: Phosphatidylinositol 4,5-bisphosphate 3-kinase catalytic subunit beta isoform (Homo sapiens, UniProt P42338); test: Inhibition of PI3Kbeta (unknown origin) by ADP-Glo luminescent kinase assay
[4] = target: Phosphatidylinositol 4,5-bisphosphate 3-kinase catalytic subunit gamma isoform (Homo sapiens, UniProt P48736); test: Inhibition of PI3Kgamma (unknown origin) by ADP-Glo luminescent kinase assay
Sequence of Phosphatidylinositol 4,5-bisphosphate 3-kinase catalytic subunit gamma isoform (P48736 whole entry, canonical isoform): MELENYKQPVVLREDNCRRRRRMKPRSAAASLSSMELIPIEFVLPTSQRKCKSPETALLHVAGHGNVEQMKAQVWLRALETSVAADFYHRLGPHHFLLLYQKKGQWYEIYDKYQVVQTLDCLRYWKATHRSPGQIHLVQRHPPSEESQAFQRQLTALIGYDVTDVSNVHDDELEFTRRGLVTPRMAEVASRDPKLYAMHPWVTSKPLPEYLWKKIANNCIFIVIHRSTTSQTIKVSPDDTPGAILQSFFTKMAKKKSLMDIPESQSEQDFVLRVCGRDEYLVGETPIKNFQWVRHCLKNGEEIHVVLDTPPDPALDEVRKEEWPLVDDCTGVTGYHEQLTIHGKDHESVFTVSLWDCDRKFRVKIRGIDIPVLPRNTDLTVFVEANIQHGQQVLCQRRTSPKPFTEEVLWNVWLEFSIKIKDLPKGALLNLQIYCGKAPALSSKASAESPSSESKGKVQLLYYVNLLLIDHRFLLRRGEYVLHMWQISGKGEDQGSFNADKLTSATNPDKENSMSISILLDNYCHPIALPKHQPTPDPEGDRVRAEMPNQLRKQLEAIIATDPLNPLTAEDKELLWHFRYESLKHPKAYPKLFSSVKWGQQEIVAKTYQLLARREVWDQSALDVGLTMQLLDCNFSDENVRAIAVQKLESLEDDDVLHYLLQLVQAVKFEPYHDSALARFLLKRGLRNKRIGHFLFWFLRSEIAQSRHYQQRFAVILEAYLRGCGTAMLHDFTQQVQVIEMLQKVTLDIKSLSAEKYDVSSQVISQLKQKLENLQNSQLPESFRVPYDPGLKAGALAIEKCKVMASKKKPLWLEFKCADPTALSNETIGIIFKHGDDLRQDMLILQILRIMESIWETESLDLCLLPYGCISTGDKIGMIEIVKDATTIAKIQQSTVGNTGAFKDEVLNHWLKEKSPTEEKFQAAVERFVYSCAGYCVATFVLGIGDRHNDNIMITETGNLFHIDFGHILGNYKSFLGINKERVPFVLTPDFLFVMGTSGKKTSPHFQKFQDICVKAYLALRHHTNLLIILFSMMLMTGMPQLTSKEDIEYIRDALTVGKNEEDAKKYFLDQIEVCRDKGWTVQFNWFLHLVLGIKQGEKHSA

Sequence of Phosphatidylinositol 4,5-bisphosphate 3-kinase catalytic subunit alpha isoform (P42336 whole entry, canonical isoform): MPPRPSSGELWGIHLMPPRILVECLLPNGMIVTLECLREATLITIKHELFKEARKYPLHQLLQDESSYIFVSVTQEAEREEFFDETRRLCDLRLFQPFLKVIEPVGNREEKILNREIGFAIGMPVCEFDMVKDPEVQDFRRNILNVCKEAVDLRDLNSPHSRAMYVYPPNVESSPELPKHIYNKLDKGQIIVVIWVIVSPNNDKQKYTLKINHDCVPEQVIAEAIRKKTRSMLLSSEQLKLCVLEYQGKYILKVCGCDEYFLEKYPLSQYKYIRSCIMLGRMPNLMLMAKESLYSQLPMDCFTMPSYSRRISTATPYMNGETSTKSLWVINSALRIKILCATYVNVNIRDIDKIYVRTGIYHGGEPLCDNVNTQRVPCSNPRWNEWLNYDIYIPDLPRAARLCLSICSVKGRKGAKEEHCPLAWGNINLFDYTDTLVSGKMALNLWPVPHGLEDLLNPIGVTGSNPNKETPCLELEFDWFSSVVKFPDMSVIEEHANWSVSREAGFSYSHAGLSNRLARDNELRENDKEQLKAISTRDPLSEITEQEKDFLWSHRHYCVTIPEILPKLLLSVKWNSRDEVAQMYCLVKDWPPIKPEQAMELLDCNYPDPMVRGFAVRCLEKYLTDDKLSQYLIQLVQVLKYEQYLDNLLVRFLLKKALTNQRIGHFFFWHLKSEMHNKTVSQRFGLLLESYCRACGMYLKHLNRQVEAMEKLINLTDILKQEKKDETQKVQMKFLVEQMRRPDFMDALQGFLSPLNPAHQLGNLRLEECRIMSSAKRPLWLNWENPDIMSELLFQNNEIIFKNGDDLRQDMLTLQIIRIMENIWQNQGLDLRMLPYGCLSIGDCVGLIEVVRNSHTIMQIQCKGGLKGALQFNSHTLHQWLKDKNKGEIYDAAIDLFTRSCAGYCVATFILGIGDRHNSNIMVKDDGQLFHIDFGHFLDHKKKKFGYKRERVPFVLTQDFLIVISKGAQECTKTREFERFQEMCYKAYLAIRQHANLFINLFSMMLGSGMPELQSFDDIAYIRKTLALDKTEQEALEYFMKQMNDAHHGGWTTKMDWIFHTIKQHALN
Sequence of Phosphatidylinositol 4,5-bisphosphate 3-kinase catalytic subunit beta isoform (P42338 whole entry, canonical isoform): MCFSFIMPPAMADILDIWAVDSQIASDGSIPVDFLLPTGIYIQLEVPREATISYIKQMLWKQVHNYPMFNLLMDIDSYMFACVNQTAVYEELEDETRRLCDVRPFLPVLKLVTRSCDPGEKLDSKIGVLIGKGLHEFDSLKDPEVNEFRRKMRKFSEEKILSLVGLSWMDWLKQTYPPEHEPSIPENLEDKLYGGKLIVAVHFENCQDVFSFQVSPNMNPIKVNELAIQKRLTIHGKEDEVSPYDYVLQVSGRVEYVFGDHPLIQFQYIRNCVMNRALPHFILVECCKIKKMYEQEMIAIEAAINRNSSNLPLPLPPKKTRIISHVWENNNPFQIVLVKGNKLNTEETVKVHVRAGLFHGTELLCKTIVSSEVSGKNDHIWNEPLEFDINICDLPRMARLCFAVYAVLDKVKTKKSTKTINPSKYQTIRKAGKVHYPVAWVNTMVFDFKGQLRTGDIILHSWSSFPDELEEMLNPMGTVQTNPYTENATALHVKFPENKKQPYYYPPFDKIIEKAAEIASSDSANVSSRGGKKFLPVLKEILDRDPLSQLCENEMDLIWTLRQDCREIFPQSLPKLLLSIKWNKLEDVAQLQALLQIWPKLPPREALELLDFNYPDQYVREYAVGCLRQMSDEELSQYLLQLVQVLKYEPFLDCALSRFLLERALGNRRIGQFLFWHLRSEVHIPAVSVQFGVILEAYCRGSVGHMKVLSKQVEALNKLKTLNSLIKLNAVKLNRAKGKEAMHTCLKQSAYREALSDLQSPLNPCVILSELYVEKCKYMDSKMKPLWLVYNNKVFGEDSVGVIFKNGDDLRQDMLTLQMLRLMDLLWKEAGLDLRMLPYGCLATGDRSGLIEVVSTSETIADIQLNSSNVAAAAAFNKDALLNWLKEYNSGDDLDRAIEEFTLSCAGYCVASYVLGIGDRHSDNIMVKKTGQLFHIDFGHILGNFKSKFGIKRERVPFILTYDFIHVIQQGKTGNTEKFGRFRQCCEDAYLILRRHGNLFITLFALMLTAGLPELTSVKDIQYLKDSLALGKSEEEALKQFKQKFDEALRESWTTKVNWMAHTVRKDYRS

| IC50 [1] | IC50 (MDA-MB-231) | IC50 (MCF7) | IC50 (SW-620) | IC50 (HCT-116) | IC50 [2] | IC50 [3] | IC50 [4] | Compound |
| --- | --- | --- | --- | --- | --- | --- | --- | --- |
| 9.68 µM |  |  |  |  |  |  |  | COC1CCN(C(=O)c2cnc3ccc(-c4ccc5oc(N)nc5c4)cn23)C1 (stereo unspecified) |
| 0.0108 µM | 12.3 µM | 15.1 µM | 11 µM | 6.05 µM |  |  |  | CN(C)C1CCN(C(=O)c2cnc3ccc(-c4ccc5oc(N)nc5c4)cn23)C1 (stereo unspecified) |
| 0.0185 µM | > 100 µM | > 100 µM | > 100 µM | > 100 µM |  |  |  | C[C@H](Nc1ncnc2ccc(-c3ccc4oc(N)nc4c3)cc12)C(N)=O |
| > 10 µM | > 100 µM | 36.1 µM | > 100 µM | > 100 µM |  |  |  | C[C@@H](NC(=O)c1cnc2ccc(-c3ccc4oc(N)nc4c3)cn12)C(N)=O |
| > 10 µM |  |  |  |  |  |  |  | C[C@H](NC(=O)c1cnc2ccc(-c3ccc4oc(N)nc4c3)cn12)C(=O)O |
| 1.64 µM |  |  |  |  |  |  |  | Nc1nc2cc(-c3ccc4nc(N5C[C@@H]6OCCO[C@@H]6C5)cnc4c3)ccc2o1 |
| 0.138 µM |  |  |  |  |  |  |  | Nc1nc2cc(-c3ccc4ncc(C(=O)N5CCNCC5)n4c3)ccc2o1 |
| 0.0255 µM |  |  |  |  |  |  |  | NC(=O)CNc1ncnc2ccc(-c3ccc4oc(N)nc4c3)cc12 |
| 0.0112 µM | 18.2 µM | 18.8 µM | 8.4 µM | 7.72 µM |  |  |  | NC(=O)[C@H](Cc1ccccc1)NC(=O)c1cnc2ccc(-c3ccc4oc(N)nc4c3)cn12 |
| 0.014 µM | 21 µM | 9.83 µM | 17.1 µM | 9.39 µM |  |  |  | NC(=O)[C@@H](NC(=O)c1cnc2ccc(-c3ccc4oc(N)nc4c3)cn12)c1ccccc1 |
| > 10 µM | > 100 µM | > 100 µM | > 100 µM | > 100 µM |  |  |  | CCOC(=O)[C@H](C)NC(=O)c1cnc2ccc(-c3ccc4oc(N)nc4c3)cn12 |
| 3.52 µM | > 100 µM | 14.7 µM | 28.8 µM | > 100 µM |  |  |  | NC(=O)[C@H](Cc1ccc(O)cc1)NC(=O)c1cnc2ccc(-c3ccc4oc(N)nc4c3)cn12 |
| 0.476 µM |  |  |  |  |  |  |  | NC(=O)CNc1cnc2cc(-c3ccc4oc(N)nc4c3)ccc2n1 |
| 0.0038 µM | 10.2 µM | 5.59 µM | 24.9 µM | 4.56 µM |  |  |  | NC(=O)CNc1cnc2ccc(-c3ccc4oc(N)nc4c3)cc2n1 |
| 0.0181 µM | 25 µM | 2.18 µM | 12 µM | 10 µM |  |  |  | NC(=O)[C@@H]1CCCN1C(=O)c1cnc2ccc(-c3ccc4oc(N)nc4c3)cn12 |
| 0.0231 µM | > 100 µM | 12.2 µM | 49.9 µM | 7.3 µM |  |  |  | NC(=O)[C@H](NC(=O)c1cnc2ccc(-c3ccc4oc(N)nc4c3)cn12)c1ccccc1 |
| 0.499 µM | 15.3 µM | 10.5 µM | 60.2 µM | 25.4 µM |  |  |  | C[C@H](Nc1cnc2ccc(-c3ccc4oc(N)nc4c3)cc2n1)C(N)=O |
| 0.0046 µM | 20.8 µM | 1.81 µM | 11.3 µM | 7.05 µM | 0.115 µM | 0.818 µM | 0.233 µM | C[C@H](NC(=O)c1cnc2ccc(-c3ccc4oc(N)nc4c3)cn12)C(N)=O |
| 0.0282 µM | > 100 µM | 3.36 µM | 32 µM | 4.03 µM |  |  |  | CN(C)C1CCN(C(=O)c2cnc3ccc(-c4ccc5oc(N)nc5c4)cn23)CC1 |
| 0.0088 µM | 10.8 µM | 5.89 µM | 13.5 µM | 7.95 µM |  |  |  | Nc1nc2cc(-c3ccc4ncc(C(=O)N5C[C@H]6OCCO[C@@H]6C5)n4c3)ccc2o1 (single isomer, unassigned) |
| 0.807 µM | > 100 µM | > 100 µM | > 100 µM | > 100 µM |  |  |  | CCC(NC(=O)c1cnc2ccc(-c3ccc4oc(N)nc4c3)cn12)C(=O)OC (stereo unspecified) |
| 0.0186 µM | 17.2 µM | 19 µM | > 100 µM | 14.5 µM |  |  |  | Nc1nc2ccc(-c3ccc4ncc(C(=O)N5CCOC(CO)C5)n4c3)cc2o1 (single isomer, unassigned) |
| 0.603 µM |  |  |  |  |  |  |  | Nc1nc2cc(-c3ccc4ncc(N5C[C@@H]6OCCO[C@H]6C5)nc4c3)ccc2o1 |
| 0.107 µM |  |  |  |  |  |  |  | Nc1nc2cc(-c3ccc4ncc(NCC(=O)NO)nc4c3)ccc2o1 |
| 0.0072 µM | 12.4 µM | 2.28 µM | 7.16 µM | 5.31 µM |  |  |  | Nc1nc2cc(-c3ccc4ncc(C(=O)N5C[C@@H]6OCCO[C@@H]6C5)n4c3)ccc2o1 |
| 0.0193 µM | > 100 µM | 16.2 µM | 37.8 µM | 34 µM |  |  |  | NC(=O)C(NC(=O)c1cnc2ccc(-c3ccc4oc(N)nc4c3)cn12)c1ccccc1 (stereo unspecified) |
